Reference: publication PMC9696794, “Synthesis and Antimicrobial Activity of Short Analogues of the Marine Antimicrobial Peptide Turgencin A: Effects of SAR Optimizations, Cys-Cys Cyclization and Lipopeptide Modifications” (International Journal of Molecular Sciences, 2022)
Values after ≈ are worked out from the molar mass of the structure shown. Where a SMILES comes first, the peptide text is derived from it. Bridges are numbered along the chain shown (N, C = ends). The star is where a group is joined. Decanoyl = CCCCCCCCCC(=O)*; Octanoyl = CCCCCCCC(=O)*

Assays:
[1] = tested on: B. subtilis (Bs, ATCC 23857); test: microbe, parasite or virus in culture; format: cell-based, Bacillus subtilis; settings: ATCC 23857, 24 h
Procedure, shortened: (§1)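 Cultures grown in Mueller–Hinton broth were adjusted by OD600 to 2.5–3 × 10^4 CFU/mL and mixed with two-fold peptide dilutions from 256 to 1 µg/mL. Plates were incubated at 35 °C with OD595 monitored every hour for 24 h.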

[2] = tested on: C. glutamicum (Cg, ATCC 13032); test: microbe, parasite or virus in culture; format: cell-based, Corynebacterium glutamicum; settings: ATCC 13032, 24 h
Procedure, shortened: as §1

[3] = tested on: S. aureus (Sa, ATCC 9144); test: microbe, parasite or virus in culture; format: cell-based, Staphylococcus aureus; settings: ATCC 9144, 24 h
Procedure, shortened: as §1

[4] = tested on: S. epidermidis RP62A (Se, ATCC 35984); test: microbe, parasite or virus in culture; format: cell-based, Staphylococcus epidermidis; settings: ATCC 35984, 24 h
Procedure, shortened: as §1

E. coli (Ec, ATCC 25922) = test: microbe, parasite or virus in culture; format: cell-based, Escherichia coli; settings: ATCC 25922, 24 h
Procedure, shortened: as §1

[5] = tested on: P. aeruginosa (Pa, ATCC 27853); test: microbe, parasite or virus in culture; format: cell-based, Pseudomonas aeruginosa; settings: ATCC 27853, 24 h
Procedure, shortened: as §1

all bacterial strains = test: Antibacterial MIC assay, all bacterial strains together (range or geometric mean); format: cell-based; settings: for GM (geometric mean of the MIC values against all bacterial strains): Table 1, six bacterial strains; for GM of MIC Tot. bact.: Table S3, all bacterial test strains, MIC >256 set to 256
Procedure, shortened: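 Broth microdilution in Mueller–Hinton broth against B. subtilis, C. glutamicum, S. aureus, S. epidermidis RP62A, E. coli and P. aeruginosa; inoculum 2.5–3 × 10^4 CFU/mL, 35 °C, OD595 read hourly for 24 h. MIC: lowest peptide concentration giving OD below 10% of growth control; geometric mean across strains, triplicate.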

A. pullulans (Ap) = test: microbe, parasite or virus in culture; format: cell-based, Aurobasidium pollulans; settings: 48 h
Procedure, shortened: (§2)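 Overnight cultures in potato dextrose broth with 2% glucose at 25–30 °C were diluted to approx. 4 × 10^5 spores/mL and mixed 1:1 with two-fold peptide dilutions plated at 256 to 1 µg/mL. After 48 h at room temperature, OD600 was read. MIC was the lowest concentration giving OD below 10% of the growth control, in triplicate.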

[6] = tested on: C. albicans (Ca, ATCC 10231); test: microbe, parasite or virus in culture; format: cell-based, Candida albicans; settings: ATCC 10231, 48 h
Procedure, shortened: as §2

Rhodotorula sp. (Rh) = test: microbe, parasite or virus in culture; format: cell-based; settings: 48 h
Procedure, shortened: as §2

[7] = tested on: human red blood cells (RBC); test: Haemolytic activity assay; format: cell-based; settings: for Selectivity index (SI) G- / Selectivity index (SI) G+ / Selectivity index (SI) Fungi: Table S3, highest tested concentration used where EC50 above it; for Selectivity index (SI) G-: EC50/GM of Gram-negative strains; for Selectivity index (SI) G+: EC50/GM of Gram-positive strains; for Selectivity index (SI) Fungi: EC50/GM of fungi; for SI (selectivity index = EC50/GM): haemolytic EC50 over GM of MIC against all bacterial strains, Table 1; for RBC Tox. (EC50), haemolytic activity: human RBC, 1 h, 37 °C, concentration giving 50% haemolysis
Procedure, shortened: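 Washed human erythrocytes (1% hematocrit final) incubated 1 h at 37 °C with agitation with lipopeptides at 500–3.9 μM in PBS (≤1% DMSO), duplicates. Haemoglobin release read at 545 nm relative to 0.1% Triton X-100; EC50 is 50% haemolysis, averaged from three experiments.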

[8] = tested on: E. coli MC4100 (wild type, WT); test: microbe, parasite or virus in culture; settings: wild type
Description: (§3) All cyclic and linear peptides were screened for antibacterial activity against four Gram-positive strains: B. subtilis (Bs, ATCC 23857), C. glutamicum (Cg, ATCC 13032), S. aureus (Sa, ATCC 9144) and S. epidermidis RP62A (Se, ATCC 35984), and two Gram-negative strains: E. coli (Ec, ATCC 25922) and P. aeruginosa (Pa, ATCC 27853). The activity was assessed using a broth microdilution assay according to a modified CLSI-based method. Briefly, overnight bacterial cultures were grown in Mueller–Hinton (MH) broth medium (Difco Laboratories, Detroit, MI, USA) for 2 h at room temperature. The optical density (OD600) was measured, and the bacterial suspensions were adjusted to 2.5–3 × 10^4 CFU/mL in MH medium. The bacterial suspension (50 µL) was distributed in 96-well plates (Nunc, Roskilde, Denmark) preloaded with two-fold dilution series (256 to 1 µg/mL) of peptide solutions (50 µL), giving a final well volume of 100 µL. The microplates were incubated in an EnVision 2103 microplate reader (PerkinElmer, Llantrisant, UK) at 35 °C, with OD595 recorded every hour for 24 h. MIC was defined as the lowest concentration of peptides showing an optical density less than 10% of the negative (growth) control, consisting of bacterial suspension and water. Polymyxin B sulfate (Sigma-Aldrich, St. Louis, MO, USA) and chlorhexidine acetate (CHX, Fresenius Kabi, Halden, Norway), both with concentrations ranging from 12.5 to 0.09 μg/mL, served as positive (growth inhibition) controls. All peptides were tested in triplicate.
(§4) MIC values were determined for all cyclic peptides against two E. coli strains: wild type (WT) MC4100 and the hyperpermeable variant NR698, having a deficient outer membrane. The NR698 strain, containing lptD4213/imp4213 mutation, was kindly provided by M. Grabowicz (Emory University School of Medicine, Rollins Research Center, Atlanta, GA, USA). The assay was performed in the same way as previously described for the antibacterial MIC assay.

[9] = tested on: E. coli NR698 (outer membrane permeable mutant, imp4213); test: microbe, parasite or virus in culture; settings: MC4100 NR698 imp4213, deficient outer membrane
Description: as §3, §4

[10] = tested on: Gram-positive bacterial strains; settings: Table S3; MIC >256 set to 256
Procedure, shortened: as §1

[11] = tested on: Gram-negative bacterial strains (E. coli and P. aeruginosa); test: Antibacterial MIC assay, Gram-negative strains together (range or geometric mean); format: cell-based; settings: Table S3; MIC >256 set to 256
Procedure, shortened: as §1

[12] = tested on: fungi (A. pullulans, C. albicans, Rhodotorula sp.); test: Antifungal MIC assay, all fungi together (range or geometric mean); format: cell-based; settings: Table S3; MIC >128 set to 128
Procedure, shortened: as §2

Row | SMILES | Antimicrobial Activity (MIC) Gram + Bs [1] | Antimicrobial Activity (MIC) Gram + Cg [2] | Antimicrobial Activity (MIC) Gram + Sa [3] | Antimicrobial Activity (MIC) Gram + Se [4] | Antimicrobial Activity (MIC) Gram − Ec (E. coli (Ec, ATCC 25922)) | Antimicrobial Activity (MIC) Gram − Pa [5] | GM (geometric mean of the MIC values against all bacterial strains) (all bacterial strains) | GM of MIC Tot. bact. (all bacterial strains) | Antimicrobial Activity (MIC) Fungi Ap (A. pullulans (Ap)) | Antimicrobial Activity (MIC) Fungi Ca [6] | Antimicrobial Activity (MIC) Fungi Rh (Rhodotorula sp. (Rh)) | Selectivity index (SI) G- [7] | Selectivity index (SI) G+ [7] | Selectivity index (SI) Fungi [7] | RBC Tox. (EC50), haemolytic activity [7] | MIC E. coli MC4100 (WT) [8] | MIC E. coli NR698 (mutant) [9] | GM of MIC G+ [10] | GM of MIC G- [11] | GM of MIC Fungi [12] | also measured
1 | CCCCCCCC(=O)N[C@H]1CSSC[C@@H](C(=O)N[C@@H](CCCNC(=N)N)C(=O)N[C@@H](CC(C)C)C(N)=O)NC(=O)[C@H](CCCNC(=N)N)NC(=O)[C@H](Cc2c[nH]c3ccccc23)NC(=O)[C@H](Cc2c[nH]c3ccccc23)NC(=O)CNC(=O)[C@H](Cc2c[nH]c3ccccc23)NC(=O)[C@H](CCCNC(=N)N)NC(=O)[C@H](CCCNC(=N)N)NC(=O)CNC1=O [Peptide C8-cTurg-6, C8- (CGRRWGWWRC)RL-NH2] (Octanoyl-CGRRWGWWRCRL-NH2; disulfide 1-10) | 4 µg/mL | 4 µg/mL | 8 µg/mL | 4 µg/mL | 8 µg/mL | 16 µg/mL | 6 µg/mL | 6 µg/mL | 64 µg/mL | 64 µg/mL | 32 µg/mL | 3 | 6 | 1 | 30 µg/mL | 8 µg/mL (≈ 4.55 µM) | 8 µg/mL (≈ 4.55 µM) | 5 µg/mL | 11 µg/mL | 51 µg/mL | SI (selectivity index = EC50/GM) [7]: 5
2 | CCCCCCCCCC(=O)N[C@H]1CSSC[C@@H](C(=O)N[C@@H](CCCCN)C(=O)N[C@@H](CC(C)C)C(N)=O)NC(=O)[C@H](CCCCN)NC(=O)[C@H](Cc2c[nH]c3ccccc23)NC(=O)CNC(=O)CNC(=O)[C@@H]2CCCN2C(=O)[C@H](CCCCN)NC(=O)[C@H](CCCCN)NC(=O)CNC1=O [Peptide C10-cTurg-1, C10 -(CGKKPGGWKC)KL-NH2] (Decanoyl-CGKKPGGWKCKL-NH2; disulfide 1-10) | 2 µg/mL | 2 µg/mL | 16 µg/mL | 4 µg/mL | 8 µg/mL | 32 µg/mL | 6 µg/mL | 6 µg/mL | 32 µg/mL | 64 µg/mL | 4 µg/mL | > 60 | > 239 | > 47 | >956 µg/mL | 8 µg/mL (≈ 5.49 µM) | 4 µg/mL (≈ 2.75 µM) | 4 µg/mL | 16 µg/mL | 20 µg/mL | –
3 | CCCCCCCCCC(=O)N[C@H]1CSSC[C@@H](C(=O)N[C@@H](CCCCN)C(=O)N[C@@H](CC(C)C)C(N)=O)NC(=O)[C@H](CCCCN)NC(=O)[C@H](Cc2c[nH]c3ccccc23)NC(=O)CNC(=O)[C@H](Cc2c[nH]c3ccccc23)NC(=O)[C@H](Cc2c[nH]c3ccccc23)NC(=O)[C@H](CCCCN)NC(=O)[C@H](CCCCN)NC(=O)CNC1=O [Peptide C10-cTurg-2, C10- (CGKKWWGWKC)KL-NH2] (Decanoyl-CGKKWWGWKCKL-NH2; disulfide 1-10) | 2 µg/mL | 4 µg/mL | 4 µg/mL | 4 µg/mL | 8 µg/mL | 8 µg/mL | 5 µg/mL | 5 µg/mL | 32 µg/mL | 64 µg/mL | 16 µg/mL | 13 | 32 | 3 | 106 µg/mL | 8 µg/mL (≈ 4.78 µM) | 4 µg/mL (≈ 2.39 µM) | 3 µg/mL | 8 µg/mL | 32 µg/mL | SI (selectivity index = EC50/GM) [7]: 24
